{
  "source": "patent US5652353A",
  "about": "“DNAs encoding tumor necrosis factor-α muteins” (priority 1990, dated 1997)",
  "system": "human p75-TNF-R versus human p55-TNF-R",
  "experiment": "Selectivity factor S from competitive binding to p75-TNF-R and p55-TNF-R",
  "settings": "based on IC50 p75-TNF-R and IC50 p55-TNF-R (Table F, FIGS. 10A-10E)",
  "procedure": "The filters were blocked with blocking buffer (50 mM Tris, 140 mM NaCl, 5 mM EDTA, 0.02% NaN3, 1% defatted milk powder) for 1.5 hours at room temperature. […] The filters were washed with blocking buffer (2× for 5 min.) and with H2 O (1× for 5 min.), air dried, and counted in a γ-counter.\nAfter three hours at room temperature the wells were thoroughly washed with PBS and counted in a γ-counter.",
  "data": [
    {"substance": "Tyr^29 -TNFα: TNF-α mutein with tyrosine substituted at position 29, SEQ ID No: 6", "values": [
      {"measurement": "selectivity factor S", "value": 110}
    ]},
    {"substance": "Tyr^32 -TNFα: TNF-α mutein with tyrosine substituted at position 32, SEQ ID No: 10", "values": [
      {"measurement": "selectivity factor S", "value": 90}
    ]}
  ]
}
